Values of other authors as cited in US20140329770A1, “Compositions Comprising Phytoestrogens Receptor Beta Agonists and Dietary Fibers for Chemopreventive Treatment of Sporadic Adenomatous Polyposis” (CM&D PHARMA LIMITED, priority 2011, published 2014).

Experiments:
rectal ACF = settings: 6-months intervention, subjects at increased risk for CRC

Structure (SMILES) | Reduction in rectal ACF numbers compared with maltodextrins (rectal ACF) | Tumor growth of human SW480 CRC (human SW480 CRC; feeding, nu/nu mice) | Toxicity (human SW480 CRC; mouse, in vivo)
CC(C)c1c(C(=O)Nc2ccccc2)c(-c2ccccc2)c(-c2ccc(F)cc2)n1CC[C@@H](O)C[C@@H](O)CC(=O)O [atovarstastin] | did not demonstrate significant reductions | – | –
COc1cc(C2Oc3cc([C@H]4Oc5cc(O)cc(O)c5C(=O)[C@@H]4O)ccc3OC2CO)ccc1O (stereo partly shown) [silybinin] | – | suppressed | Without any apparent toxicity
CC1=C(CC(=O)O)c2cc(F)ccc2/C1=C\c1ccc([S+](C)[O-])cc1 (stereo not shown) [sulindac] | did not demonstrate significant reductions | – | –
